# Results from patent US8211899B2, “Artificial nucleic acid bases and their use in base pairing natural nucleic acid bases” (Inter-University Research Institute Corporation National …, priority 2005, dated 2012).
# Like-named read-outs stand apart in the source and are kept apart here.
# What was measured:
# 1-methylthymine (T) = test: test of base pair formation by UV absorbance change versus mixing ratio; format: binding; details: mixture with T, total 7.5 mmol/L, mol ratio 0:10 to 10:0, anhydrous DMSO, 25° C., 12 hr
# Description: The test of base pair formation was carried out in the following way. The concentration of the mixture of PPT and one of respective N-methylated natural nucleic acid bases (1-methylcytosine (herein after, referred to as “C”), 1-methylthymine (hereinafter, referred to as “T”). 9-methyladenine (hereinafter, referred to as “A”), and 9-methylguanine (hereinafter, referred to as “G”)) was kept constant at 7.5 mmol/L and the ratio (mol ratio) of the mixture was varied from 0:10 to 10:0. The mixture was dissolved at 25° C. in anhydrous dimethyl sulfoxide (DMSO), which had been removed oxygen by freezing-degas method, dissolved argon gas, mixed with DMSO solution of substrates prepared before hand, and allowed to leave for overnight (12 hr.). Then, the change of absorbance in ultraviolet wavelength region was measured according to the following conditions: • (1) The measuring equipment, JASCO V-550 SERIAL NO. C02951260; • (2) The thermal controller, JASCO PSC-498T; • (3) The cell, GL Science Type: AB20-SQ-0.1 (Optical path is 0.1 mm); • (4) The cell adopter, CAS-10-1; • (5) The measured wavelength region, 200-350 nm.
# The absorbance of substrates is proportional to a mixing ratio of the substrates (Beer's law) in the case of no interaction between substrates.
# For comparison, the base pair formation was examined for A and T, and G and T similarly to Example 3.
# [1] = solubility test in solvents at 1 to 100 mM; format: physicochemical; details: for solubility: warmed to 50° C. and cooled to 27° C.; for solubility in water and organic solvents: water and various organic solvents
# Description: The solubility of PPT obtained in Example 1 was examined. For comparison, the solubility of a PPT derivative, wherein R is H in chemical formula I (hereinafter, referred to as “PPT(H)”). For the solubility test, each solvent listed in Table I was used, and the concentration of solute was 1 to 100 mM. The solution with respective concentrations was warmed once to 50° C. and cooled to 27° C. The solution with residues was referred to as “insoluble”, in the contrast the solution without residues was referred to as “soluble”. The concentration of the buffer was 100 mM and the pH was 7.0.
# 9-methyladenine (A) = test: test of base pair formation by UV absorbance change versus mixing ratio; format: binding; details: mixture with A, total 7.5 mmol/L, mol ratio 0:10 to 10:0, anhydrous DMSO, 25° C., 12 hr
# Description: (§1) The test of base pair formation was carried out in the following way. […] The mixture was dissolved at 25° C. in anhydrous dimethyl sulfoxide (DMSO), which had been removed oxygen by freezing-degas method, dissolved argon gas, mixed with DMSO solution of substrates prepared before hand, and allowed to leave for overnight (12 hr.). Then, the change of absorbance in ultraviolet wavelength region was measured according to the following conditions: • (1) The measuring equipment, JASCO […]IAL NO. C02951260; • (2) The thermal controller, JASCO PSC-498T; • (3) The cell, GL Science Type: AB20-SQ-0.1 (Optical path is 0.1 mm); • (4) The cell adopter, CAS-10-1; • (5) The measured wavelength region, 200-350 nm. The absorbance changed in accordance with the mixing ratios. Plot of the absorbance change versus to mixing ratios at a wavelength, where the absorbance change was observed, are shown in FIG. 2. The absorbance of substrates is proportional to a mixing ratio of the substrates (Beer's law) in the case of no interaction between substrates.
# 9-methylguanine (G) = test: as above; format: binding; details: mixture with G, total 7.5 mmol/L, mol ratio 0:10 to 10:0, anhydrous DMSO, 25° C., 12 hr
# Description: as §1
# 1-methylcytosine (C) = test: as above; format: binding; details: mixture with C, total 7.5 mmol/L, mol ratio 0:10 to 10:0, anhydrous DMSO, 25° C., 12 hr
# Description: as §1
# [2] = TBE buffer 100 mM pH 7.0, concentration 1 mM
# [3] = TBE buffer 100 mM pH 7.0, concentration 100 mM
# [4] = phosphate buffer 100 mM pH 7.0, concentration 1 mM
# [5] = phosphate buffer 100 mM pH 7.0, concentration 100 mM
# [6] = DMF, 27 °C, organic solvent or mixture, thermodynamic from solid, DMF, concentration 1 mM, read-out: solubility
# [7] = DMF, 27 °C, organic solvent or mixture, thermodynamic from solid, DMF, concentration 100 mM, read-out: solubility
# [8] = DMSO, 27 °C, organic solvent or mixture, thermodynamic from solid, DMSO, concentration 1 mM, read-out: solubility
# [9] = DMSO, 27 °C, organic solvent or mixture, thermodynamic from solid, DMSO, concentration 100 mM, read-out: solubility
# [10] = TBE buffer, 27 °C, pH 7, aqueous buffer, thermodynamic from solid, TBE buffer 100 mM pH 7.0, concentration 1 mM, read-out: solubility
# [11] = TBE buffer, 27 °C, pH 7, aqueous buffer, thermodynamic from solid, TBE buffer 100 mM pH 7.0, concentration 100 mM, read-out: solubility
# [12] = methanol, 27 °C, organic solvent or mixture, thermodynamic from solid, methanol, concentration 1 mM, read-out: solubility
# [13] = methanol, 27 °C, organic solvent or mixture, thermodynamic from solid, methanol, concentration 100 mM, read-out: solubility
# [14] = phosphate buffer, 27 °C, pH 7, aqueous buffer, thermodynamic from solid, phosphate buffer 100 mM pH 7.0, concentration 1 mM, read-out: solubility
# [15] = phosphate buffer, 27 °C, pH 7, aqueous buffer, thermodynamic from solid, phosphate buffer 100 mM pH 7.0, concentration 100 mM, read-out: solubility
# [16] = water, 27 °C, water, thermodynamic from solid, water, concentration 1 mM, read-out: solubility
# [17] = water, 27 °C, water, thermodynamic from solid, water, concentration 100 mM, read-out: solubility
Compound,base pair formation: deviation of absorbance plot from the linear line by Beer's law (1-methylthymine (T)),"solubility ([1]; DMF, concentration 1 mM)","solubility ([1]; DMF, concentration 100 mM)","solubility ([1]; DMSO, concentration 1 mM)","solubility ([1]; DMSO, concentration 100 mM)","solubility [1, 2]","solubility [1, 3]","solubility ([1]; methanol, concentration 1 mM)","solubility ([1]; methanol, concentration 100 mM)","solubility [1, 4]","solubility [1, 5]","solubility ([1]; water, concentration 1 mM)","solubility ([1]; water, concentration 100 mM)",other results
"Cn1cnc2c(=O)[nH]c(N)nc21 [G, 9-methylguanine]",no deviation from the linear line,–,–,–,–,–,–,–,–,–,–,–,–,–
"Cn1cnc2c(N)ncnc21 [A, 9-methyladenine]",deviation from the linear line,–,–,–,–,–,–,–,–,–,–,–,–,–
C=CCn1c(=O)[nH]c(=O)c2c(=O)[nH]c(=O)[nH]c21 [CH2CH═CH2],–,S (S: soluble),S (S: soluble),S (S: soluble),S (S: soluble),S (S: soluble),Ins (Ins: insoluble),S (S: soluble),Ins (Ins: insoluble),S (S: soluble),Ins (Ins: insoluble),S (S: soluble),Ins (Ins: insoluble),–
"CC(C)(C)[Si](OCCn1c(=O)[nH]c(=O)c2c(=O)[nH]c(=O)[nH]c21)(c1ccccc1)c1ccccc1 [PPT, 1-[2-(t-butyl-diphenyl-silyloxy)-ethyl]-1H, 8H-pyrimido [4,5-d]pyrimidine-2,4,5,7-tetraone]",large deviation from the linear line,–,–,–,–,–,–,–,–,–,–,–,–,"solubility [1, 6]: > 1 mM; solubility [1, 7]: > 1 mM; solubility [1, 8]: > 1 mM; solubility [1, 9]: > 1 mM; solubility [1, 10]: > 1 mM; solubility [1, 11]: < 100 mM; solubility [1, 12]: > 1 mM; solubility [1, 13]: < 100 mM; solubility [1, 14]: > 1 mM; solubility [1, 15]: < 100 mM; solubility [1, 16]: > 1 mM; solubility [1, 17]: < 100 mM; base pair formation: deviation of absorbance plot from the linear line by Beer's law (9-methyladenine (A)): large deviation from the linear line; base pair formation: deviation of absorbance plot from the linear line by Beer's law (9-methylguanine (G)): large deviation from the linear line; base pair formation: deviation of absorbance plot from the linear line by Beer's law (1-methylcytosine (C)): large deviation from the linear line"
O=C(O)Cn1c(=O)[nH]c(=O)c2c(=O)[nH]c(=O)[nH]c21 [CH2COOH],–,S (S: soluble),Ins (Ins: insoluble),S (S: soluble),Ins (Ins: insoluble),S (S: soluble),S (S: soluble),S (S: soluble),Ins (Ins: insoluble),S (S: soluble),S (S: soluble),S (S: soluble),S (S: soluble),–
O=c1[nH]c(=O)c2c(=O)[nH]c(=O)n(CCO)c2[nH]1 [CH2CH2OH],–,S (S: soluble),Ins (Ins: insoluble),S (S: soluble),Ins (Ins: insoluble),S (S: soluble),Ins (Ins: insoluble),S (S: soluble),Ins (Ins: insoluble),S (S: soluble),Ins (Ins: insoluble),S (S: soluble),Ins (Ins: insoluble),–
"O=c1[nH]c(=O)c2c(=O)[nH]c(=O)[nH]c2[nH]1 [PPT(H), pyrimido [4,5-d]pyrimidine-2,4,5,7-tetraone, reference compound]",–,–,–,–,–,–,–,–,–,–,–,–,–,"solubility [1, 6]: < 100 mM; solubility [1, 7]: < 100 mM; solubility [1, 8]: < 100 mM; solubility [1, 9]: < 100 mM; solubility [1, 10]: < 100 mM; solubility [1, 11]: < 100 mM; solubility [1, 12]: < 100 mM; solubility [1, 13]: < 100 mM; solubility [1, 14]: < 100 mM; solubility [1, 15]: < 100 mM; solubility in water and organic solvents [1]: insoluble; solubility in water and organic solvents ([1]; listed as unsubstituted form of pyrimido [4,5-d] pyrimidine -2,4,5,7-tetraone): extremely low; solubility [1, 16]: < 100 mM; solubility [1, 17]: < 100 mM"
